Article PMC3243694, “Integrated Dataset of Screening Hits against Multiple Neglected Disease Pathogens” (PLoS Neglected Tropical Diseases, 2011)

Experiments:
[1] = system: Brugia malayi microfilariae; experiment: Anti-Brugia malayi microfilariae motility assay; type: cell-based; conditions: B. malayi microfilariae; 12.5 µM
Procedure: (§1) The compound set was tested against the following parasites: intra-erythrocytic forms in human red blood cells of P. falciparum K1 strain (malaria), [16], [32], [33], [35], bloodstream forms of T. brucei Squib 427 strain (human African trypanosomiasis, HAT), [31], [32], [34], intracellular amastigotes of T. cruzi Tulahuen CL2, beta- galactosidase strain (Chagas' Disease), [32]–[35], intracellular amastigotes of L. infantum MHOM/MA(BE)/67 (leishmaniasis), [32]–[36], larval and/or adult worms of S. mansoni Puerto Rican strain (schistosomiasis), [31], [37], microfilariae of B. malayi (lymphatic filariasis), [30] and microfilariae of O. ochengi or O. lienalis (onchocerciasis), [30]. It should be noted that the human pathogen for onchocerciasis is Onchocerca volvulus, but due to lack of a suitable in vitro assay or animal models for this pathogen, O. ochengi and lienalis, which are both animal pathogens, are used in the primary and secondary assays, [30].
As result of logistics issues attributed to lost shipments of some compounds, only 6160 molecules of the 10,000 compound set were tested, at a uniform molarity, against B. malayi, including 6063 against microfilariae and 756 against adult worms (these sets overlap). […] Greatest priority was given to compounds with activity against adult worms, as no macrofilaricide is available for use in control campaigns and the activity of ivermectin as a microfilaricidal agent is unlikely to be bettered in a new series. Of the test set, 53 compounds met the activity criterion for microfilariae (100% motility reduction) and an additional 58 inhibited adult worm motility ≥75% at 10 µM. These were titrated to determine an IC50 value to support prioritization. Following cytotoxicity triage [structures # 1, 4, 6], eight compounds met the activity criterion for adult worms (i.e., 100% inhibition of adult worm motility), four of which were also active against microfilariae [structures # 14, 29, 30, 32]. […] Of these, the most interesting was TDR76699 [structure # 29]; this compound has very good activity against adult worms (IC50 = 0.1 µg/ml) and is also active against microfilariae (IC50 = 0.7 µg/ml). None of the other compounds tested against adult parasites had IC50 values ≤0.5 µg/ml, a threshold which would reduce concerns about specificity. However, a few series [structures # 31, 33, 34], appear interesting for future medicinal chemistry projects.

[2] = system: Trypanosoma cruzi, Tulahuen CL2 strain; experiment: Antitrypanosomal activity assay, T. cruzi in MRC-5 cells; type: cell-based; conditions: T. cruzi Tulahuen CL2 in MRC-5 cells, 7 days
Procedure: as §1
171 of the 744 actives passed the initial criterion of IC50<1 µg/ml for T. cruzi Tulahuen CL2, beta galactosidase strain maintained on MRC-5SV2 cells in MEM medium (MRC-5 cell/parasite inoculum: 4.10^3 cells/well+4.10^4 parasites/well), supplemented with […] L-glutamine, 16.5 mM NaHCO3 and 5% heat inactivated fetal calf serum. […] Of these, 109 were eliminated [structures #1–6] for poor selectivity versus mammalian cells (SI<50) and an additional 11 due to undesirable chemical attributes. The remaining 51 compounds were sorted into 10 series (45 compounds) and 6 singletons [structures # 21, 22]. Two of these series with excellent potency against T. cruzi, limited activity against other protozoa and SI values >50 (not shown), have been transferred to DNDi for further evaluation.

[3] = system: MRC-5 cell line (diploid human embryonic lung fibroblast); experiment: Cytotoxicity on MRC-5 cells; type: cell-based
Source text: [table] An important part of the screen is the evaluation of all compounds for cytotoxicity using the diploid human embryonic lung fibroblast MRC-5 cell line (Figure 2). Further evaluation of cytotoxicity also takes advantage of the assays for intracellular protozoan parasites, as in the case of L. infantum and T. cruzi, which include murine peritoneal macrophage host cells and MRC-5SV2 human lung fibroblast cells, respectively, in the culture system.

[4] = system: Onchocerca (lienalis or ochengi) microfilariae; experiment: Anti-Onchocerca microfilariae motility assay; type: cell-based, Onchocerca lienalis or O. ochengi
Procedure: as §1
4240 compound s were screened against O. ochengi at the University of Buea in Cameroon, while a subset of […] compounds was successfully screened in UK by the Northwick Park Institute for Medical Research against O. lienalis, at a uniform molarity. […] After removing molecules that were toxic to mammalian cells (IC50<5 µg/ml), 292 molecules remained for further evaluation. […] From the latter sub-set, […] distinct chemical series and one singleton [structure # 35] were active against both microfilaria and adults. One series [structures # 2, 3] was deemed not interesting due to lack of selectivity against mammalian cells. The remaining series is being transferred to ANDI for further progression as part of a new collaboration.

[5] = system: Trypanosoma brucei brucei Squib-427 strain; experiment: Antitrypanosomal activity assay, T. brucei (resazurin); type: cell-based; conditions: T. brucei Squib 427 bloodstream forms, 72 h
Procedure: as §1

[6] = system: Schistosoma mansoni adult worms; experiment: Anti-Schistosoma activity assay (adult worm motility); type: cell-based; conditions: S. mansoni adult worms; 12.5 µM (method: 10 µg/ml or 12.5 µM)
Procedure: as §1
A subset of 9478 of the 10,000 compound collection was tested against the Puerto Rican strain of S. mansoni. 6144 of these were tested in a primary larval assay followed by the ex-vivo adult secondary screen. The remainder was screened only in the adult assay. […] The 65 compounds were sorted by chemical attractiveness, potency against adult schistosomes in culture, selectivity against other parasites, and toxicity to mammalian cells in culture. Based on this analysis, 5 series encompassing 13 compounds were chosen for advancement through the African Network for Drug and Diagnostic Innovation (ANDI) and other PDPs. Representative structures [structures # 13, 27, 28] are shown (Table S1). These compounds are unburdened by obvious toxic moieties, have acceptable compliance with the Lipinski rules, are selectively active against schistosomes and are not overtly toxic to mammalian cells. It has unfortunately not been possible to titrate all of these hits in culture; of about 50% for which such data are available, none has an IC50<2 µg/ml (which is the initial potency criteria).

[7] = system: Plasmodium falciparum K1 strain; experiment: Anti-Plasmodium activity assay (Malstat); type: cell-based; conditions: P. falciparum K1, 72 h
Procedure: as §1

SMILES	LF/MF % Motility Reduction at 12.5µM [1]	CHA IC50 [2]	CYT IC50 [3]	ONC/MF % Motility Reduction at 12.5µM [4]	HAT IC50 [5]	SCH % Motility Reduction at 12.5µM [6]	MAL IC50 [7]
Cc1c(C(=O)N2CCC(C)CC2)sc2nc(-c3ccc(F)cc3)cn12 [TDR77657]	0%	>10.72 mg/L	>10.72 mg/L	0%	0.42 mg/L	0%	>10.72 mg/L
O=S(=O)(NCC(c1cccnc1)N1CCN(Cc2ccccc2)CC1)c1ccc(Cl)cc1 (stereo not drawn) [TDR78023]	–	0.63 mg/L	>14.13 mg/L	0%	>14.13 mg/L	0%	2.18 mg/L
C=CCN(CC=C)S(=O)(=O)c1ccc(C(=O)Nc2nc3ccc(C(C)C)cc3s2)cc1 [TDR78794]	–	4.48 mg/L	>10.99 mg/L	0%	>10.99 mg/L	100%	>10.99 mg/L
O=C(CSc1ccc2nnc(-c3ccccn3)n2n1)NCC1CCCO1 (stereo not drawn) [TDR78834]	–	5.2 mg/L	>12.1 mg/L	0%	3.3 mg/L	0%	3.15 mg/L
COc1ccc(N2CCCS2(=O)=O)cc1NC(=O)c1cc(Cl)ccc1OC [TDR79456]	–	5.0 mg/L	>12.3 mg/L	13.3%	4.3 mg/L	4%	>12.3 mg/L
O=C(Nc1nc(-c2ccncc2)cs1)C1CCCN(S(=O)(=O)c2ccc(Cl)s2)C1 (stereo not drawn) [TDR80165]	–	0.24 mg/L	>14.07 mg/L	50%	4.5 mg/L	0%	6.68 mg/L
O=C(CN1CCC(C(=O)Nc2ccc(Oc3ccccc3)cc2)CC1)Nc1ccc(F)cc1 [TDR80731]	–	>13.43 mg/L	>13.43 mg/L	0%	>13.43 mg/L	0%	>13.43 mg/L
Cc1ccc(N2CCn3c2nnc(C(=O)NCCC2=CCCCC2)c3=O)cc1 [TDR81281]	–	>11.38 mg/L	>11.38 mg/L	0%	>11.38 mg/L	0%	0.15 mg/L
CCOc1ccc2nc(N(Cc3cccnc3)C(=O)c3ccc(Cl)s3)sc2c1 [TDR81636]	0%	0.66 mg/L	>12.2 mg/L	11%	3.52 mg/L	0%	3.55 mg/L
CCCn1/c(=N/C(=O)C2=COCCO2)sc2c(C)ccc(OC)c21 [TDR82272]	0%	0.89 mg/L	>10.45 mg/L	20%	>10.45 mg/L	0%	3.18 mg/L
O=C(Cc1ccc(F)cc1)Nc1nc(-c2ccccn2)cs1 [TDR82963]	0%	0.33 mg/L	>9.4 mg/L	23%	0.31 mg/L	0%	2.97 mg/L
Cc1ccc(C(=O)Nc2nnc(Cc3cccs3)o2)cc1C [TDR85275]	50%	3.01 mg/L	–	0%	0.38 mg/L	25%	–
